Where two headings read alike, the source gives them in different places. Marks after values point to notes of the source that are not given here. Residues, ends and D or L forms follow the SMILES beside them.
Legend:
A. solani [1] = type: cell-based, Alternaria solani (strain MO-VNIIF-9-2018)
Procedure: The inhibitory effect of synthesized peptides on conidial germination of fungi was assessed by a microtiterplate assay. Fungal conidia were added to WAMP-2-derived peptides, already dissolved in SDW, to prepare suspensions having final concentrations of 10^5 microconidia/mL (F. oxysporum) or 3 × 10^4 macroconidia/mL (A. solani). Resulting suspensions were incubated at 20–22 °C overnight in wells of 96-well microtiter plates. Control suspensions (with the same final concentrations of conidia) were prepared using SDW. Thereafter, germinated and non-germinated conidia (500 ones of each pathogen per treatment) were counted in treated and control suspensions using an inverted microscope. The average number of conidia germinated in these suspensions was calculated and expressed as the percent of the total number of the counted conidia. In addition, percent germination inhibition in the treated conidia, relative to germination in controls, was determined and indicated as levels of the inhibitory effect in Table 2 and Table 3. […]
For each of the two pathogens, microtiter plate tests with synthesized peptides included three independent experimental series. […] Mean values, standard deviations, standard errors, as well as significant differences from controls and between treatments (t-test for independent variables, p ≤ 0.05), were calculated using STATISTICA v. […]

F. oxysporum [2] = type: cell-based, Fusarium oxysporum f. sp. lycopersici (strain F37); conditions: for Expected additive inhibitory effect (Ee), peptide combined with Folicur: calculated by Limpel's formula
Procedure: (§1) The assays were performed in 96-well microtiter plates, using a “checkerboard” design. Fungal conidia were treated with either Folicur® or peptide fragments, each alone, and, in parallel, were subjected to combined treatments wherein the fungicide and one of the WAMP-2-derived peptides were mixed in the same concentration as when used alone. […] However, enhancement potency varied depending on the pathogen, the WAMP fragment, and co-applied concentrations of the WAMP-2 fragments and Folicur®.
(§2) The inhibitory effect of synthesized peptides on conidial germination of fungi was assessed by a microtiterplate assay. Fungal conidia were added to WAMP-2-derived peptides, already dissolved in SDW, to prepare suspensions having final concentrations of 10^5 microconidia/mL (F. oxysporum) or 3 × 10^4 macroconidia/mL (A. solani). Resulting suspensions were incubated at 20–22 °C overnight in wells of 96-well microtiter plates. Control suspensions (with the same final concentrations of conidia) were prepared using SDW. Thereafter, germinated and non-germinated conidia (500 ones of each pathogen per treatment) were counted in treated and control suspensions using an inverted microscope. The average number of conidia germinated in these suspensions was calculated and expressed as the percent of the total number of the counted conidia. In addition, percent germination inhibition in the treated conidia, relative to germination in controls, was determined and indicated as levels of the inhibitory effect in Table 2 and Table 3. Oligopeptides were tested at final concentrations of 50, 100, 200, and 400 µg/mL, which were selected based on previous results of testing of the same WAMP-2-derived peptides for the ability to inhibit spore germination in other Fusarium and Alternaria species.
(§3) In vitro tests involving pathogen sensitization to Folicur® EC 250 were designed under the principle of a microdilution checkerboard assay. Fungal conidia were incubated in 96-well plates in mixtures of the fungicide and each of the peptides at the above-mentioned concentrations in parallel with conidia’ incubation in the solutions of Folicur® or the oligopeptides, alone, used at the same final concentrations as in the mixtures.
(§4) To reveal oligopeptide/fungicide synergy, the Limpel criterion Ee < Er was determined by Formula (1):Ee,% = (X + Y) − XY/100 < Er,% (at p ≤ 0.05),(1) where Ee is the level of an expected additive effect from application of both test compounds; X and Y represent inhibition of the spore germination in % by each antifungal agent used alone; and Er is the percentage of actual inhibition obtained experimentally by co-application of X and Y.
(§5) For each of the two pathogens, microtiter plate tests with synthesized peptides included three independent experimental series. Each experiment included 5 replications of each treatment, 100 conidia per each one (n = 500). Experiments evaluating the sensitizing activity of the tested peptides on leaf disks and detached tomato seedlings were additionally repeated twice. Mean values, standard deviations, standard errors, as well as significant differences from controls and between treatments (t-test for independent variables, p ≤ 0.05), were calculated using STATISTICA v. 6.1 software (StatSoft Inc., Tulsa, OK, USA). Approximation of confidence values (R^2) and regression coefficients were determined using statistical functions of Microsoft Excel 2013 (Microsoft Corp. Redmond, WA, USA).

F. oxysporum [3] = type: cell-based, Fusarium oxysporum f. sp. lycopersici (strain F37)
Procedure: In the first series of these experiments, we tested the inhibitory effect of the fragments against F. oxysporum and compared the inhibitory activity of the fragments to each other and to the entire WAMP-2 peptide. Microconidia of the pathogen were treated to each of the WAMP-2 fragments taken at three or four concentrations ranging between 50 and 200 (WAMP-N, WAMP-G2), 100 and 400 (WAMP-G1), or 50 and 400 (WAMP-C) µg/mL. […] After the treatments, the rate of germinated conidia was determined, expressed as the percent relative to the total number of conidia counted (500 ones per treatment). Effective doses (EDs) providing a 50% or 99.9% inhibition were calculated by probit analysis. The performed analysis confirmed our previous data on the antifungal activity of WAMP-2-derived fragments towards the Fusarium wilt agent.
as §2
Inhibitory concentrations of the peptides providing in vitro 50% or 99% in vitro suppression of conidial germination (ED50, and ED99, respectively) were determined by the probit analysis with the involvement of a linear regression. In a regression equation (Y = ax + b) used in probit analyses, Y is the probit value for 50% or 99% inhibition levels, x values are decimal logarithms of the correspondent concentrations, and a and b represent regression coefficients. The calculated ED99 values from the probit analysis were considered as the minimum fungicidal concentration (MFC), i.e., the lowest concentration of a peptide, used alone, resulting in […] inhibition of conidial germination.
as §5, with “Experiments evaluating the sensitizing activity of the tested peptides on leaf disks and detached tomato seedlings were additionally repeated twice.” left out, “6.1 software (StatSoft Inc., Tulsa, OK, USA).” left out

A. solani [4] = type: cell-based, Alternaria solani (strain MO-VNIIF-9-2018); remark: listed apart in the source
Procedure: as §1, §2, §3, §4, §5

Compound: N=C(N)NCCC[C@H](NC(=O)[C@H](CS)NC(=O)CNC(=O)[C@H](CCCNC(=N)N)NC(=O)[C@H](CS)NC(=O)[C@H](CCC(N)=O)NC(=O)[C@H](CO)NC(=O)[C@H](CCC(N)=O)NC(=O)[C@H](CS)NC(=O)[C@H](CO)NC(=O)CNC(=O)[C@H](CCCCN)NC(=O)CN)C(=O)O [WAMP-C] (H-GKGSCQSQCRGCR-OH)
- ED99 (MFC) (A. solani [1]): 53.4 ^g µg/mL
- Inhibitory effect on conidial germination (Er), peptide alone (F. oxysporum [2]; 50 µg/mL): 4.3 ^a %
- Inhibitory effect on conidial germination (Er), peptide alone (F. oxysporum [2]; 100 µg/mL): 6.2 ^b %
- Inhibitory effect on conidial germination (Er), peptide alone (F. oxysporum [2]; 200 µg/mL): 8.6 ^c %
- Inhibitory effect on conidial germination (Er), peptide alone (F. oxysporum [2]; 400 µg/mL): 11.6 ^c %
- ED99 (MFC) (F. oxysporum [3]): 106.9 ^d µg/mL
- Inhibitory effect on conidial germination (Er), peptide alone (A. solani [4]; 100 µg/mL): 19.0 ^a %
- Inhibitory effect on conidial germination (Er), peptide alone (A. solani [4]; 200 µg/mL): 31.0 ^b %
- Inhibitory effect on conidial germination (Er), peptide alone (A. solani [4]; 400 µg/mL): 48.2 ^c %

Compound: CC(C)C[C@H](N)C(=O)N[C@@H](CS)C(=O)N[C@@H](CS)C(=O)NCC(=O)N[C@@H](CCCCN)C(=O)N[C@@H](Cc1ccc(O)cc1)C(=O)NCC(=O)N[C@@H](Cc1ccccc1)C(=O)N[C@@H](CS)C(=O)NCC(=O)N[C@@H](CO)C(=O)NCC(=O)O [WAMP-G1] (H-LCCGKYGFCGSG-OH)
- ED99 (MFC) (A. solani [1]): 3980.0 ^f µg/mL
- Inhibitory effect on conidial germination (Er), peptide alone (F. oxysporum [2]; 100 µg/mL): 1.1 ^a %
- Inhibitory effect on conidial germination (Er), peptide alone (F. oxysporum [2]; 200 µg/mL): 8.0 ^b %
- Inhibitory effect on conidial germination (Er), peptide alone (F. oxysporum [2]; 400 µg/mL): 17.5 ^c %
- ED99 (MFC) (F. oxysporum [3]): >10,000 µg/mL
- Inhibitory effect on conidial germination (Er), peptide alone (A. solani [4]; 100 µg/mL): 2.0 ^a %
- Inhibitory effect on conidial germination (Er), peptide alone (A. solani [4]; 200 µg/mL): 9.8 ^b %
- Inhibitory effect on conidial germination (Er), peptide alone (A. solani [4]; 400 µg/mL): 21.9 ^c %

Compound: C[C@H](N)C(=O)N[C@@H](CCC(N)=O)C(=O)N[C@@H](CCCNC(=N)N)C(=O)N[C@@H](CS)C(=O)NCC(=O)N[C@@H](CC(=O)O)C(=O)N[C@@H](CCC(N)=O)C(=O)N[C@@H](C)C(=O)N[C@@H](CCCNC(=N)N)C(=O)NCC(=O)N[C@@H](C)C(=O)N[C@@H](CCCCN)C(=O)N[C@@H](CS)C(=O)O [WAMP-N] (H-AQRCGDQARGAKC-OH)
- Inhibitory effect on conidial germination (Er), peptide alone (F. oxysporum [2]; 50 µg/mL): 12.3 ^a %
- Inhibitory effect on conidial germination (Er), peptide alone (F. oxysporum [2]; 100 µg/mL): 23.1 ^b %
- Inhibitory effect on conidial germination (Er), peptide alone (F. oxysporum [2]; 200 µg/mL): 42.7 ^c %
- ED99 (MFC) (F. oxysporum [3]): 22.7 µg/mL

Compound: CCGKYGFCGSGDAYC [WAMP-G2, chemically synthesized fragment (residues 18–32) from the central region of WAMP-2]
- Expected additive inhibitory effect (Ee), peptide combined with Folicur (F. oxysporum [2]; peptide 50 µg/mL + Folicur 0.005 µg/mL): 14.5%
- Observed inhibitory effect (Er), peptide combined with Folicur (F. oxysporum [2]; peptide 50 µg/mL + Folicur 0.005 µg/mL, mean of 3 experiments): 27.8 ^b %
- Expected additive inhibitory effect (Ee), peptide combined with Folicur (F. oxysporum [2]; peptide 50 µg/mL + Folicur 0.01 µg/mL): 24.8%
- Observed inhibitory effect (Er), peptide combined with Folicur (F. oxysporum [2]; peptide 50 µg/mL + Folicur 0.01 µg/mL, mean of 3 experiments): 36.4 ^b %
- Expected additive inhibitory effect (Ee), peptide combined with Folicur (F. oxysporum [2]; peptide 50 µg/mL + Folicur 0.05 µg/mL): 33.0%
- Observed inhibitory effect (Er), peptide combined with Folicur (F. oxysporum [2]; peptide 50 µg/mL + Folicur 0.05 µg/mL, mean of 3 experiments): 47.4 ^b %
- Inhibitory effect on conidial germination (Er), peptide alone (F. oxysporum [2]; peptide 50 µg/mL, Folicur 0.0 µg/mL, SDW, overnight 20–22 °C, mean of 3 experiments): 7.0 ^a %
- Expected additive inhibitory effect (Ee), peptide combined with Folicur (F. oxysporum [2]; peptide 100 µg/mL + Folicur 0.005 µg/mL): 28.8%
- Observed inhibitory effect (Er), peptide combined with Folicur (F. oxysporum [2]; peptide 100 µg/mL + Folicur 0.005 µg/mL, mean of 3 experiments): 49.3 ^c %
- Expected additive inhibitory effect (Ee), peptide combined with Folicur (F. oxysporum [2]; peptide 100 µg/mL + Folicur 0.01 µg/mL): 37.7%
- Observed inhibitory effect (Er), peptide combined with Folicur (F. oxysporum [2]; peptide 100 µg/mL + Folicur 0.01 µg/mL, mean of 3 experiments): 53.1 ^c %
- Expected additive inhibitory effect (Ee), peptide combined with Folicur (F. oxysporum [2]; peptide 100 µg/mL + Folicur 0.05 µg/mL): 44.1%
- Observed inhibitory effect (Er), peptide combined with Folicur (F. oxysporum [2]; peptide 100 µg/mL + Folicur 0.05 µg/mL, mean of 3 experiments): 56.8 ^c %
- Inhibitory effect on conidial germination (Er), peptide alone (F. oxysporum [2]; peptide 100 µg/mL, Folicur 0.0 µg/mL, SDW, overnight 20–22 °C, mean of 3 experiments): 22.4 ^b %
- Expected additive inhibitory effect (Ee), peptide combined with Folicur (F. oxysporum [2]; peptide 200 µg/mL + Folicur 0.005 µg/mL): 41.8%
- Observed inhibitory effect (Er), peptide combined with Folicur (F. oxysporum [2]; peptide 200 µg/mL + Folicur 0.005 µg/mL, mean of 3 experiments): 62.6 ^d %
- Expected additive inhibitory effect (Ee), peptide combined with Folicur (F. oxysporum [2]; peptide 200 µg/mL + Folicur 0.01 µg/mL): 47.1%
- Observed inhibitory effect (Er), peptide combined with Folicur (F. oxysporum [2]; peptide 200 µg/mL + Folicur 0.01 µg/mL, mean of 3 experiments): 74.8 ^d %
- Expected additive inhibitory effect (Ee), peptide combined with Folicur (F. oxysporum [2]; peptide 200 µg/mL + Folicur 0.05 µg/mL): 52.7%
- Observed inhibitory effect (Er), peptide combined with Folicur (F. oxysporum [2]; peptide 200 µg/mL + Folicur 0.05 µg/mL, mean of 3 experiments): 87.1 ^d %
- Inhibitory effect on conidial germination (Er), peptide alone (F. oxysporum [2]; peptide 200 µg/mL, Folicur 0.0 µg/mL, SDW, overnight 20–22 °C, mean of 3 experiments): 34.1 ^c %
- ED50 (F. oxysporum [3]; 50% inhibition of microconidia germination, probit analysis, SDW, overnight 20–22 °C): 0.35 ^a µg/mL
- ED99 (MFC) (F. oxysporum [3]; lowest concentration giving 99.9% inhibition of conidial germination, probit analysis): 35.1 ^b µg/mL
